From patent US11885816B2, “Personalized medicine approach for treating cognitive loss” (University of North Texas Health Science Center at Fort …, priority 2013, dated 2024)
“Also recorded” adds a separate entry of the source. Read-outs that look alike come from different tables or passages of the source.

Test system: AD patients
Conditions: for disease severity (CDR Sum of Boxes [CDRSum]): treated; for change in MMSE scores over the 12 month period of the trial: treatment group
Protocol: In order to determine if the proinflammatory endophenotype predicted treatment response, baseline plasma samples were analyses from a previously conducted trial of the Alzheimer's Disease Cooperative Study (ADCS, Aisen et al 2003, JAMA).
Baseline plasma samples were assayed using enhanced chemiluminescence (ECL) for a range of inflammatory markers. The pro-inflammatory profile was generated using CRP and TNFα. Additional markers can be used to improve the already robust results shown herein. The frequency of the low, middle (referent group) and high ends of the pro-inflammatory profile are presented below.
Blood samples from a previously conducted clinical trial among AD patients was used. This trial was conducted by the Alzheimer's Disease Cooperative Study (ADCS, Aisen et al 2003, JAMA).
Baseline plasma samples were assayed using ECL for a range of inflammatory markers. The pro-inflammatory profile was generated using CRP and TNFα.

For `COc1ccc2cc([C@H](C)C(=O)O)ccc2c1` [naproxen], the “treatment comparison of non-selective with selective NSAIDs” value (high end of the proinflammatory endophenotype, comparator selective NSAIDs (celecoxib)) was “superior treatment”, the “disease severity (CDR Sum of Boxes [CDRSum])” value (high end of the pro-inflammatory profile, compared to untreated) was “declined less than those who were untreated” and the “disease severity (CDR Sum of Boxes [CDRSum])” value (low end of the pro-inflammatory profile, over 12 months, compared to any other group) was “progressed in disease severity more rapidly”. For the same molecule, the “change in MMSE scores over the 12 month period of the trial” value (high end of the pro-inflammatory profile (group 3), compared to the low end and the referent group, listed as anti-inflammatory drug) was “stable over 12 months; also recorded: stable over 12 mo” and the “change in MMSE scores over the 12 month period of the trial” value (low end of the pro-inflammatory profile (group 1), compared to the referent (middle) group) was “declined significantly faster”.
